According to patent publication US20250223268A1, “4-Methylsulfonylbenzamide Compound, Preparation Method, Herbicidal Composition And Use” (Jiangsu Flag Chemical Industry Co., Ltd., priority 2022, published 2025):

Key:
Assay in all cases: Greenhouse herbicidal activity assay, post-emergence
Type in all cases: in vivo
Conditions in all cases: Post-emergence test, rate 150 g a.i./hm^2, grade by fresh weight inhibition rate
Cyperus iria = test system: Cyperus iria
Procedure, shortened: (§1)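 Weeds and crops grown in pots of nutrient soil in a growth chamber to the 3-6 leaf stage, then foliar-sprayed and air-dried. Fresh weight inhibition scored 14-21 days after treatment and graded A (≥80%) through E (<20%).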

Digitaria sanguinalis = test system: Digitaria sanguinalis
Procedure, shortened: as §1

Echinochloa crusgalli = test system: Echinochloa crusgalli
Procedure, shortened: as §1

Leptochloa chinensis = test system: Leptochloa chinensis
Procedure, shortened: as §1

Eclipta prostrata = test system: Eclipta prostrata
Procedure, shortened: as §1

Compound	Control efficacy grade, Cyperus iria (Cyperus iria)	Control efficacy grade, Digitaria sanguinalis (Digitaria sanguinalis)	Control efficacy grade, Echinochloa crusgalli (Echinochloa crusgalli)	Control efficacy grade, Leptochloa chinensis (Leptochloa chinensis)	Control efficacy grade, Eclipta prostrata (Eclipta prostrata)	pest or weed control at 150 g/ha (Cyperus iria; Cyperus iria, read-out: Control efficacy grade, Cyperus iria) [%]	pest or weed control at 150 g/ha (Digitaria sanguinalis; Digitaria sanguinalis, read-out: Control efficacy grade, Digitaria sanguinalis) [%]	pest or weed control at 150 g/ha (Echinochloa crusgalli; Echinochloa crus-galli, read-out: Control efficacy grade, Echinochloa crusgalli) [%]	pest or weed control at 150 g/ha (Leptochloa chinensis; Dinebra chinensis, read-out: Control efficacy grade, Leptochloa chinensis) [%]	pest or weed control at 150 g/ha (Eclipta prostrata; Eclipta prostrata, read-out: Control efficacy grade, Eclipta prostrata) [%]
CCC[S+]([O-])c1c(S(C)(=O)=O)ccc(C(=O)Nc2nnn[nH]2)c1Cl (racemic) [Compound 1-78]	A (Fresh weight inhibition rate≥80% to 100%)	A (Fresh weight inhibition rate≥80% to 100%)	A (Fresh weight inhibition rate≥80% to 100%)	A (Fresh weight inhibition rate≥80% to 100%)	A (Fresh weight inhibition rate≥80% to 100%)	–	–	–	–	–
CC(C)[S+]([O-])c1c(S(C)(=O)=O)ccc(C(=O)Nc2nnn[nH]2)c1Cl (racemic) [Compound 1-83]	A (Fresh weight inhibition rate≥80% to 100%)	A (Fresh weight inhibition rate≥80% to 100%)	A (Fresh weight inhibition rate≥80% to 100%)	A (Fresh weight inhibition rate≥80% to 100%)	A (Fresh weight inhibition rate≥80% to 100%)	–	–	–	–	–
CCC[S+]([O-])c1c(S(C)(=O)=O)ccc(C(=O)Nc2nnnn2CC)c1Cl (racemic) [Compound 1-88]	A (Fresh weight inhibition rate≥80% to 100%)	A (Fresh weight inhibition rate≥80% to 100%)	A (Fresh weight inhibition rate≥80% to 100%)	A (Fresh weight inhibition rate≥80% to 100%)	A (Fresh weight inhibition rate≥80% to 100%)	–	–	–	–	–
CCC[S+]([O-])c1c(S(C)(=O)=O)ccc(C(=O)Nc2ncnn2C)c1Cl (racemic) [Compound 2-2]	A (Fresh weight inhibition rate≥80% to 100%)	A (Fresh weight inhibition rate≥80% to 100%)	A (Fresh weight inhibition rate≥80% to 100%)	A (Fresh weight inhibition rate≥80% to 100%)	A (Fresh weight inhibition rate≥80% to 100%)	–	–	–	–	–
CC(C)[S+]([O-])c1c(S(C)(=O)=O)ccc(C(=O)Nc2ncnn2C)c1Cl (racemic) [Compound 2-7, 2-chloro-3-(isopropylsulfinyl)-N-(1-methyl-1H-1,2,4-triazol-5-yl)-4-(methylsulfonyl)benzamide]	–	–	–	–	–	80 to 100	80 to 100	80 to 100	80 to 100	80 to 100
CCCC[S+]([O-])c1c(S(C)(=O)=O)ccc(C(=O)Nc2ncnn2C)c1Cl (racemic) [Compound 2-12]	A (Fresh weight inhibition rate≥80% to 100%)	A (Fresh weight inhibition rate≥80% to 100%)	A (Fresh weight inhibition rate≥80% to 100%)	A (Fresh weight inhibition rate≥80% to 100%)	A (Fresh weight inhibition rate≥80% to 100%)	–	–	–	–	–
CCC(C)S(=O)(=O)c1c(S(C)(=O)=O)ccc(C(=O)Nc2ncnn2C)c1Cl (racemic) [Compound 2-24]	A (Fresh weight inhibition rate≥80% to 100%)	A (Fresh weight inhibition rate≥80% to 100%)	A (Fresh weight inhibition rate≥80% to 100%)	A (Fresh weight inhibition rate≥80% to 100%)	A (Fresh weight inhibition rate≥80% to 100%)	–	–	–	–	–
Cn1ncnc1NC(=O)c1ccc(S(C)(=O)=O)c([S+]([O-])CC2CC2)c1Cl (racemic) [Compound 2-28]	A (Fresh weight inhibition rate≥80% to 100%)	A (Fresh weight inhibition rate≥80% to 100%)	A (Fresh weight inhibition rate≥80% to 100%)	A (Fresh weight inhibition rate≥80% to 100%)	A (Fresh weight inhibition rate≥80% to 100%)	–	–	–	–	–
Cn1ncnc1NC(=O)c1ccc(S(C)(=O)=O)c([S+]([O-])C2CC2)c1Cl (racemic) [Compound 2-33]	A (Fresh weight inhibition rate≥80% to 100%)	A (Fresh weight inhibition rate≥80% to 100%)	A (Fresh weight inhibition rate≥80% to 100%)	A (Fresh weight inhibition rate≥80% to 100%)	A (Fresh weight inhibition rate≥80% to 100%)	–	–	–	–	–
Cn1ncnc1NC(=O)c1ccc(S(C)(=O)=O)c([S+]([O-])C2CCC2)c1Cl (racemic) [Compound 2-38]	A (Fresh weight inhibition rate≥80% to 100%)	A (Fresh weight inhibition rate≥80% to 100%)	A (Fresh weight inhibition rate≥80% to 100%)	A (Fresh weight inhibition rate≥80% to 100%)	A (Fresh weight inhibition rate≥80% to 100%)	–	–	–	–	–
Cn1ncnc1NC(=O)c1ccc(S(C)(=O)=O)c([S+]([O-])C2CCCC2)c1Cl (racemic) [Compound 2-43]	A (Fresh weight inhibition rate≥80% to 100%)	A (Fresh weight inhibition rate≥80% to 100%)	A (Fresh weight inhibition rate≥80% to 100%)	A (Fresh weight inhibition rate≥80% to 100%)	A (Fresh weight inhibition rate≥80% to 100%)	–	–	–	–	–
Cn1ncnc1NC(=O)c1ccc(S(C)(=O)=O)c([S+]([O-])C2CCCCC2)c1Cl (racemic) [Compound 2-48]	A (Fresh weight inhibition rate≥80% to 100%)	A (Fresh weight inhibition rate≥80% to 100%)	A (Fresh weight inhibition rate≥80% to 100%)	A (Fresh weight inhibition rate≥80% to 100%)	A (Fresh weight inhibition rate≥80% to 100%)	–	–	–	–	–
C=CC[S+]([O-])c1c(S(C)(=O)=O)ccc(C(=O)Nc2ncnn2C)c1Cl (racemic) [Compound 2-68]	A (Fresh weight inhibition rate≥80% to 100%)	A (Fresh weight inhibition rate≥80% to 100%)	A (Fresh weight inhibition rate≥80% to 100%)	A (Fresh weight inhibition rate≥80% to 100%)	A (Fresh weight inhibition rate≥80% to 100%)	–	–	–	–	–
CCC[S+]([O-])c1c(S(C)(=O)=O)ccc(C(=O)Nc2nnc(C)o2)c1Cl (racemic) [Compound 3-2]	A (Fresh weight inhibition rate≥80% to 100%)	A (Fresh weight inhibition rate≥80% to 100%)	A (Fresh weight inhibition rate≥80% to 100%)	A (Fresh weight inhibition rate≥80% to 100%)	A (Fresh weight inhibition rate≥80% to 100%)	–	–	–	–	–
CCCC[S+]([O-])c1c(S(C)(=O)=O)ccc(C(=O)Nc2nnc(C)o2)c1Cl (racemic) [Compound 3-12]	A (Fresh weight inhibition rate≥80% to 100%)	A (Fresh weight inhibition rate≥80% to 100%)	A (Fresh weight inhibition rate≥80% to 100%)	A (Fresh weight inhibition rate≥80% to 100%)	A (Fresh weight inhibition rate≥80% to 100%)	–	–	–	–	–
CCC(C)Sc1c(S(C)(=O)=O)ccc(C(=O)Nc2nnc(C)o2)c1Cl (racemic) [Compound 3-16]	A (Fresh weight inhibition rate≥80% to 100%)	A (Fresh weight inhibition rate≥80% to 100%)	A (Fresh weight inhibition rate≥80% to 100%)	A (Fresh weight inhibition rate≥80% to 100%)	A (Fresh weight inhibition rate≥80% to 100%)	–	–	–	–	–
Cc1nnc(NC(=O)c2ccc(S(C)(=O)=O)c([S+]([O-])CC(C)C)c2Cl)o1 (racemic) [Compound 3-28]	A (Fresh weight inhibition rate≥80% to 100%)	A (Fresh weight inhibition rate≥80% to 100%)	A (Fresh weight inhibition rate≥80% to 100%)	A (Fresh weight inhibition rate≥80% to 100%)	A (Fresh weight inhibition rate≥80% to 100%)	–	–	–	–	–
Cc1nnc(NC(=O)c2ccc(S(C)(=O)=O)c([S+]([O-])CC3CC3)c2Cl)o1 (racemic) [Compound 3-38]	A (Fresh weight inhibition rate≥80% to 100%)	A (Fresh weight inhibition rate≥80% to 100%)	A (Fresh weight inhibition rate≥80% to 100%)	A (Fresh weight inhibition rate≥80% to 100%)	A (Fresh weight inhibition rate≥80% to 100%)	–	–	–	–	–
